Patent publication US20260250250A1, “3-(SULPHONYL OR SULFONIMIDOYL)PROP-2-EN-1-YL]-2-OXO-1,2-DIHYDROPYRIDINE-3-CARBOXAMIDE DERIVATIVES” (Flinder Therapeutics B.V., priority 2022, published 2026)

What was measured:
[1] = molecular target: T1, human E3 ubiquitin-protein ligase RNF31 (HOIP) (Homo sapiens, UniProt Q96EP0); test: Cell-free HTRF-based HOIP inhibition assay; format: biochemical
T1 sequence (Q96EP0 695-1072 limits assumed): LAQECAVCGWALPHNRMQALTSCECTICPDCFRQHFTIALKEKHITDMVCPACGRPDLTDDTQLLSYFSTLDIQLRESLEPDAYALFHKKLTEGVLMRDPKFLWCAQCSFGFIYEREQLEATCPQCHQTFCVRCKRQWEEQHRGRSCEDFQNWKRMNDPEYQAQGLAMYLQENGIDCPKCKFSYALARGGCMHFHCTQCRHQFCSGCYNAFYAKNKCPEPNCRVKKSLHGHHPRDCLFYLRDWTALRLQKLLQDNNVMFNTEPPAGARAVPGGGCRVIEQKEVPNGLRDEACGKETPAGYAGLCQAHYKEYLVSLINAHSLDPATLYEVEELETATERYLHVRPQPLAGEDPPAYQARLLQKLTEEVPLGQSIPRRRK
Method in brief: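 Recombinant human HOIP fragment (E. coli) preincubated with compounds (100-0.005 μM, 1% DMSO) and E1 for 1 h at 25° C. E2 and substrates then added; reaction 2.5 h at 25° C. HTRF read-out, excitation 337 nm, emissions 665/620 nm.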

NF-κB signaling pathway = test: Cell-based dual luciferase NF-κB reporter assay (HEK293 cells, TNF stimulated); details: Homo sapiens, HEK293
Method in brief: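 HEK293 cells transfected with Firefly luciferase and NF-κB-response-element NanoLuc plasmids; compounds at 100–0.005 µM in 1% DMSO. Cells stimulated with 2.5 ng/mL TNF 30 min after compound addition. Firefly and NanoLuc activities read after 6 h by Nano-Glo dual-luciferase detection.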

[2] = tested on: bladder carcinoma RT4 cell line; test: TNF-α-induced cytotoxicity assay (CellTiter-Glo viability); format: cell-based; details: Homo sapiens, RT-4, 72 h
Method in brief: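 RT4 bladder carcinoma cells, 1000 per well, stimulated with 1.25 ng/mL TNFα together with compound for 72 h at 37° C., 5% CO2. Viability read by CellTiter-Glo luminescence, proportional to cellular ATP, as a measure of HOIP-dependent cytotoxicity.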

| Structure (SMILES) | IC50 [1] [µM] | IC50 (NF-κB signaling pathway) [µM] | IC50 [2] [µM] |
| --- | --- | --- | --- |
| COc1ccc(S(=N)(=O)/C=C/CNC(=O)c2cc(-c3ccccc3)c[nH]c2=O)cc1F (stereo not drawn) [Example 149, N-[(2E)-3-[(3-fluoro-4-methoxyphenyl)(imino)oxo-λ^6-sulfanyl]prop-2-en-1-yl]-2-oxo-5-phenyl-1,2-dihydropyridine-3-carboxamide] | ≤ 1 | ≤ 10 | ≤ 10 |
| COc1ccc(S(=N)(=O)/C=C/CNC(=O)c2cc3c([nH]c2=O)CCN(Cc2ccccc2)C3)cc1F (stereo not drawn) [Example 153, 6-benzyl-N-[(2E)-3-[(3-fluoro-4-methoxyphenyl)(imino)oxo-A*-sulfanyl]prop-2-en-1-yl]-2-oxo-1,2,5,6,7,8-hexahydro-1,6-naphthyridine-3-carboxamide] | ≤ 1 | ≤ 1 | ≤ 1 |
| COc1ccc(S(=N)(=O)/C=C/CNC(=O)c2cc3c([nH]c2=O)CCN(CC(F)(F)F)C3)cc1F (stereo not drawn) [Example 170, N-[(2E)-3-[(3-fluoro-4-methoxyphenyl)(imino)oxo-λ^6-sulfanyl]prop-2-en-1-yl]-2-oxo-6-(2,2,2-trifluoroethyl)-1,2,5,6,7,8-hexahydro-1,6-naphthyridine-3-carboxamide] | ≤ 1 | ≤ 10 | ≤ 10 |
| COc1ccc(S(=N)(=O)/C=C/CNC(=O)c2cc3c([nH]c2=O)CCN(C(=O)OCC(F)F)C3)cc1F (stereo not drawn) [Example 178, 2,2-difluoroethyl 3-{[(2E)-3-[(3-fluoro-4-methoxyphenyl)(imino)oxo-λ^6-sulfanyl]prop-2-en-1-yl]carbamoyl}-2-oxo-1,2,5,6,7,8-hexahydro-1,6-naphthyridine-6-carboxylate] | ≤ 0.1 | ≤ 10 | ≤ 10 |
| N=S(=O)(/C=C/CNC(=O)c1cc2c([nH]c1=O)CCN(C(=O)OCC1CC1)C2)c1ccccc1 (stereo not drawn) [Example 179, cyclopropylmethyl 3-{[(2E)-3-[imino(oxo)phenyl-λ^6-sulfanyl]prop-2-en-1-yl]carbamoyl}-2-oxo-1,2,5,6,7,8-hexahydro-1,6-naphthyridine-6-carboxylate] | ≤ 1 | ≤ 10 | ≤ 10 |
| COc1ccc(S(=N)(=O)/C=C/CNC(=O)c2cc3c([nH]c2=O)CCN(C(=O)OCCF)C3)cc1F (stereo not drawn) [Example 180, 2-fluoroethyl 3-{[(2E)-3-[(3-fluoro-4-methoxyphenyl)(imino)oxo-λ^6-sulfanyl]prop-2-en-1-yl]carbamoyl}-2-oxo-1,2,5,6,7,8-hexahydro-1,6-naphthyridine-6-carboxylate] | ≤ 0.1 | ≤ 10 | ≤ 10 |
| N=S(=O)(/C=C/CNC(=O)c1cc2c([nH]c1=O)CCN(C(=O)OCCF)C2)c1ccccc1 (stereo not drawn) [Example 181, 2-fluoroethyl 3-{[(2E)-3-[imino(oxo)phenyl-λ^6-sulfanyl]prop-2-en-1-yl]carbamoyl}-2-oxo-1,2,5,6,7,8-hexahydro-1,6-naphthyridine-6-carboxylate] | ≤ 1 | ≤ 100 | ≤ 10 |
| N=S(=O)(/C=C/CNC(=O)c1cc2c([nH]c1=O)CCN(C(=O)OCC(F)F)C2)c1ccccc1 (stereo not drawn) [Example 182, 2,2-difluoroethyl 3-{[(2E)-3-[imino(oxo)phenyl-λ^6-sulfanyl]prop-2-en-1-yl]carbamoyl}-2-oxo-1,2,5,6,7,8-hexahydro-1,6-naphthyridine-6-carboxylate] | ≤ 1 | ≤ 100 | ≤ 10 |

Now from value to compound, other results behind:

| IC50 [1] [µM] | IC50 (NF-κB signaling pathway) [µM] | Structure (SMILES) | IC50 [2] [µM] |
| --- | --- | --- | --- |
| ≤ 1 | ≤ 1 | COc1ccc(S(=N)(=O)/C=C/CNC(=O)c2cc3c([nH]c2=O)CCC(C(C)(C)C)C3)cc1F (stereo not drawn) [Example 148, 6-tert-butyl-N-[(2E)-3-[(3-fluoro-4-methoxyphenyl)(imino)oxo-A*-sulfanyl]prop-2-en-1-yl]-2-oxo-1,2,5,6,7,8-hexahydroquinoline-3-carboxamide] | ≤ 1 |
| ≤ 1 | ≤ 10 | COc1ccc(S(=N)(=O)/C=C/CNC(=O)c2cc3c([nH]c2=O)CCCCC3)cc1F (stereo not drawn) [Example 150, N-[(2E)-3-[(3-fluoro-4-methoxyphenyl)(imino)oxo-λ^6-sulfanyl]prop-2-en-1-yl]-2-oxo-1H,2H,5H,6H,7H,8H,9H-cyclohepta[b]pyridine-3-carboxamide] | ≤ 1 |
| ≤ 1 | ≤ 10 | COc1ccc(S(=N)(=O)/C=C/CNC(=O)c2cc3c([nH]c2=O)CCC3)cc1F (stereo not drawn) [Example 151, N-[(2E)-3-[(3-fluoro-4-methoxyphenyl)(imino)oxo-λ^6-sulfanyl]prop-2-en-1-yl]-2-oxo-1H,2H,5H,6H,7H-cyclopenta[b]pyridine-3-carboxamide] | ≤ 1 |
| ≤ 0.1 | ≤ 10 | COc1ccc(S(=N)(=O)/C=C/CNC(=O)c2cc3c([nH]c2=O)CCN(C(=O)OC(C)(C)C)C3)cc1F (stereo not drawn) [Example 152, tert-butyl 3-{[(2E)-3-[(3-fluoro-4-methoxyphenyl)(imino)oxo-λ^6-sulfanyl]prop-2-en-1-yl]carbamoyl}-2-oxo-1,2,5,6,7,8-hexahydro-1,6-naphthyridine-6-carboxylate] | ≤ 10 |
| ≤ 1 | ≤ 10 | COc1ccc(S(=N)(=O)/C=C/CNC(=O)c2cc3c([nH]c2=O)CCC(OC)C3)cc1F (stereo not drawn) [Example 169, N-[(2E)-3-[(3-fluoro-4-methoxyphenyl)(imino)oxo-λ^6-sulfanyl]prop-2-en-1-yl]-6-methoxy-2-oxo-1,2,5,6,7,8-hexahydroquinoline-3-carboxamide] | ≤ 10 |
